Measurements taken from patent publication US5834452A, “1- or 6-hydroxylated steroids” (Roussel Uclaf, priority 1996, dated 1998).

Columns and labels:
[1] = biological target: T1, Human progesterone receptor (HPR) (Homo sapiens, UniProt P06401); assay: Relative bond affinity (RBA), recombinant human progestogen receptor, charcoal dextran technique; assay type: binding; conditions: 24 h at 0° C., Progesterone = 100
T1 construct: made in house; host or cells: SF9 insect cells (ATCC CRL1711), baculovirus, lysate supernatant
T1 sequence (P06401 1-933): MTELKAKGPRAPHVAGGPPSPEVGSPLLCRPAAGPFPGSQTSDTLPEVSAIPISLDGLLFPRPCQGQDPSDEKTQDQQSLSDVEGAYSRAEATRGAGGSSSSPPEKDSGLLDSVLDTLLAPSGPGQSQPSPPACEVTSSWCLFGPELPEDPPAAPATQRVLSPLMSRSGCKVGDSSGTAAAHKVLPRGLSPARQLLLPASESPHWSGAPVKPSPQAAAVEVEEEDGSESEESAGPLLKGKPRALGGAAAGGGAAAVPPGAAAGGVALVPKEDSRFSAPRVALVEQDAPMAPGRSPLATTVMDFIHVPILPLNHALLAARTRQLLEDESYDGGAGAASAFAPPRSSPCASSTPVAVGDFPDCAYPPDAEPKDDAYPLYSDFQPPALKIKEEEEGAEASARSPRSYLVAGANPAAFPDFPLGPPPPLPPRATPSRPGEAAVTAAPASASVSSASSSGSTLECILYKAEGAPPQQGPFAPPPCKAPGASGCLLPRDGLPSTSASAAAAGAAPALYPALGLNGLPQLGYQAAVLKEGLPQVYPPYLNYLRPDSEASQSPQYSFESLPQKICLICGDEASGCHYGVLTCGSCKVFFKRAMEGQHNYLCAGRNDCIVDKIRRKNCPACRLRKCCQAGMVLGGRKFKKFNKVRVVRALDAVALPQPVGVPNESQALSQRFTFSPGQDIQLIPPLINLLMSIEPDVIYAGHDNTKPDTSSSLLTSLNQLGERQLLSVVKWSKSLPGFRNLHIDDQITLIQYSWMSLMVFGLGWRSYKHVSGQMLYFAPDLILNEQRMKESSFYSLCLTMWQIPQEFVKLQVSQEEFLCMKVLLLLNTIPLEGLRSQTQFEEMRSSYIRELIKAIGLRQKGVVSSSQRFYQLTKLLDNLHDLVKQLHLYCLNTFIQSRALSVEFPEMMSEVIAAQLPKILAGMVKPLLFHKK
Source text: The human recombinant receptor (HGR, HPR, HAR, HMR, HER) was used.
Human progesterone receptor (HPR):
The recombinant human progestogen receptor was obtained by the superexpression in a cell system of insects--Baculovirus, according to the methodology described by Webb et al (Journal of Methods in Cell and Molecular Biology, (1990) Vol. 2 No. 4, p. 173-188) and the application of which was described for the expression of human hormonal receptors, for example the human glucocorticoid receptor (Srinivasan et al, Molecular Endocrinology, (1990) Vol. 4 No. 2, p. 209-216.
The BaculoGold Transfection Kit (PharMingen, reference 21000K) was used to insert the cDNA fragment described by Kastner et al (The EMBO Journal, (1990), Vol. 9 No. 5, p. 1603-1614), containing the region coding for the human progestogen receptor and to prepare the corresponding recombinant virus. The recombinant virus obtained in this way was used to express the progestogen receptor in SF9 insect cells (ATCC CRL1711), according to the known methodology cited previously.
2×10^7 to 2.5×10^7 SF9 cells were cultured in a 175 ml "Falcon" flask in the TNM-FH medium supplemented with 10% fetal calf serum (FCS) and with 50 micrograms/ml of gentamycin. After infection, then incubation at 27° C. for 40 to 42 hours, the cells were taken up in 1 ml of lysis buffer (1), lysed by 2 cycles of freezing-thawing (-80° C./ 0° C.), then centrifuged at 4° C. for 30 minutes at 20,900 g. The supernatant, containing the recombinant human progestogen receptor, was stored in liquid nitrogen in quantities of 1 ml.
The supernatant was diluted at the time of use with 10 mM Tris buffer, 0.25M saccharose, HCl pH 7.4 containing 0.1% of gelatin and then incubated at 0° C. for 24 hours with a constant concentration (T) of tritiated 17α, 21-dimethyl-19-nor-Δ^4,9 pregnadiene-3,20-dione in the presence of increasing concentrations of either unlabelled progesterone (0-2500×10^-9 M), or the unlabelled product to be tested (1 to 25000×10^-9 M). The concentration of bound tritiated 17,21-dimethyl-19-nor-Δ^4,9 -pregnadiene-3,20-dione (B) was then measured in each incubate using the charcoal dextran adsorption technique.
Calculation of the relative bond affinity (RBA).
The following two curves were drawn: the percentage of bound tritiated hormone B/BO as a function of the logarithm of the concentration of unlabelled reference hormone or as a function of the logarithm of the concentration of unlabelled test product. The straight line of the following equation was determined: […]
The relative bond affinity (RBA) of the test product was determined by the equation: […]

[2] = system: endometrial proliferation (uterine lace); assay: Progestomimetic activity: endometrial transformation in the rabbit (Clauberg-McPhail test); assay type: in vivo; parameters: key to Average uterine lace (McPhail Index): McPhail scale 0–4 with 0.5 steps (endometrial proliferation); conditions: for Progestomimetic activity: rabbit

C[C@H](O)C(=O)[C@@]1(C)CC[C@H]2[C@@H]3C[C@@H](O)C4=CC(=O)CCC4=C3CC[C@@]21C [Product B, [6β, 17β-(S)]-6-hydroxy-17-(2-hydroxy-1-oxopropyl)-17-methyl-Δ^4,9-estradiene-3-one] was tested, and the “RBA, Human progestogen receptor” value [1] was 12 and the “RBA, Human progestogen receptor” value ([1]; listed as product B) was “moderate RBA”.

In the case of C[C@H](O)C(=O)[C@@]1(C)CC[C@H]2[C@@H]3CCC4=CC(=O)CCC4=C3CC[C@@]21C [Trimegestone, [17β-(S)]-17-(2-hydroxy-1-oxopropyl)-17-methyl-Δ^4,9-estradiene-3-one, reference compound], the Progestomimetic activity ([2]; 3 μg/kg percutaneously) is reported as “strong activity”, the “Average uterine lace (McPhail Index)” value ([2]; rabbit, 0,003 mg/kg, s/c, day 8 to day 11) is reported as 3,8 and the Progestomimetic activity ([2]; 3 and 10 μg/kg orally) is reported as “strong activity”. The “RBA, Human progestogen receptor” value [1] was 588.
